The target in one assay is T1, human CB1 receptor (Homo sapiens, UniProt P21554).
T1 construct: expressed in transfected cells; membrane-enriched fractions
Put plainly: competitive radioligand binding assay, displacement of [3H]CP55,940, CB1. To be noted: for IC50: displacement of specific [3H]-CP55940 binding in HEK 293 cells stably transfected with human CB1 receptor. The method in brief: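 Test compound competed with 0.75 nM [3H]CP55,940 for 1.5 hours at 30° C (pH 7.4 Tris buffer with 0.3% BSA) on 0.2˜8 μg membrane fractions from stable human CB1 or CB2 cell lines. Bound radioactivity on washed filters was counted; 1 μM CP55,940 defined non-specific binding.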

In a further assay the target is T2, human CB2 receptor (Homo sapiens, UniProt P34972).
T2 construct: expressed in transfected cells; membrane-enriched fractions
T2 sequence (P34972 whole entry): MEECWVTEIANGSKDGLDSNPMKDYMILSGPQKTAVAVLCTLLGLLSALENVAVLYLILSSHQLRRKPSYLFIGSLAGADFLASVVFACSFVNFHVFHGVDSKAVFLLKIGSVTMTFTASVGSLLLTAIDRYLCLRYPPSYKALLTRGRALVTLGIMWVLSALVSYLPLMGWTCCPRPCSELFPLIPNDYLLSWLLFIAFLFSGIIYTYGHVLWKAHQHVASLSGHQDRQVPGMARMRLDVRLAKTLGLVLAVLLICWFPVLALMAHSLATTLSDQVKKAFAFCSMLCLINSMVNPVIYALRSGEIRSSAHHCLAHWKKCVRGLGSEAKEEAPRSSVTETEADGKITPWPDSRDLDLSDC
Put plainly: competitive radioligand binding assay, displacement of [3H]CP55,940, CB2. How it is done:
In addition, the affinity of test compounds of this invention toward CB1 and CB2 receptors was determined by competitive radioligand binding assays in vitro. This method differentiates the binding strength between compounds by their abilities in displacing a receptor-specific radioactive ligand. […] The readings of the radioactivity retained allow further analysis of receptor binding, and assist in predictions of the pharmacological activities of the test compounds.
In the assays, CB1 receptors are from human CB1 stably expressed cell lines, and CB2 receptors are from human CB2 stably expressed cell lines. For purification of membrane-enriched fractions, cells were scraped off from the culture dishes in ice-cold buffer A (50 mM Tris, 5 mM MgCl2, 2.5 mM EDTA, pH 7.4, 10% sucrose) with 1 mM PMSF. After sonication, the membrane-enriched fractions were centrifuged for 15 minutes at 2,000×g at 4° C. The supernatant was centrifuged again for 30 minutes at 43,000×g at 4° C. The final pellet was re-suspended in buffer A and stored at −80° C. The protein concentration of the purified membrane was determined by the Bradford method as described by the manual provided by Bio-Rad Laboratories, Inc., Hercules, Calif.
During the receptor binding experiments, 0.2˜8 μg of membrane fractions were incubated with 0.75 nM [^3H]CP55,940 and a test compound in the incubation buffer of 50 mM Tris-HCl, 5 mM MgCl2, 1 mM EDTA, 0.3% BSA, pH 7.4. The non-specific binding was determined by using 1 μM of CP55,940. The mixture was incubated for 1.5 hours at 30° C. in Multiscreen microplates (Millipore, Billerica, Mass.). At the completion of the incubation, the reaction was terminated by Manifold filtration and washed with ice-cold wash buffer (50 mM Tris, pH 7.4, 0.25% BSA) four times. The radioactivity bound to the filters was measured by Topcount (Perkin Elmer Inc.).

Setting [1] is: Table 2, percent inhibition at 10 μM.

Some results are limits rather than exact numbers.

T1 sequence (P21554 whole entry): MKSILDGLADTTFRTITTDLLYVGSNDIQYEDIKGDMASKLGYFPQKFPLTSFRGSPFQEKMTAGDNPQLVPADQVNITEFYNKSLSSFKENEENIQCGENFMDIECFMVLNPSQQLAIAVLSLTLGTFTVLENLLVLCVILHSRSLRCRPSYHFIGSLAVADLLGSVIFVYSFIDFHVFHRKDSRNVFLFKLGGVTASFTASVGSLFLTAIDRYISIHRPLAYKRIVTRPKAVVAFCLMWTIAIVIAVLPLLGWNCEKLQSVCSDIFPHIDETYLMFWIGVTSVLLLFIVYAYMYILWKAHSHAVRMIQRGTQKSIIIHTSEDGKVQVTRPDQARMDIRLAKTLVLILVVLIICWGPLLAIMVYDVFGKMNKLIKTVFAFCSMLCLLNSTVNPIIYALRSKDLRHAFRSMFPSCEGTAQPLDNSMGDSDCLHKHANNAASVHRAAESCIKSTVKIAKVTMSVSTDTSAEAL

On human CB1 receptor (setting [1]), `O=C(Cn1nc(-c2ccc(Cl)cc2)c(-c2ccc(Cl)cc2Cl)n1)NCc1ccccc1` [Compound 168] displayed an inhibition at 10 µM of 93.9%. Moreover, the values for the IC50 at human CB1 receptor and on human CB2 receptor (cells printed in μM) were 204 ± 78.1 nM and > 10 µM, respectively.
For `O=C(Cn1nc(-c2ccc(Cl)cc2Cl)c(-c2ccc(Cl)cc2Cl)n1)NCc1ccccc1` [Compound 122], in that order: 99.3%, 66.9 ± 8.9 nM and > 10 µM.
For the compound `O=C(Cn1nc(-c2ccc(Cl)cc2Cl)c(-c2ccc(Cl)cc2Cl)n1)NCc1ccc(F)cc1` [Compound 171], the half-inhibitory concentration (IC50) on human CB1 receptor is 11.6 ± 3.4 nM; on human CB2 receptor (cells printed in μM), > 10 µM.
For the compound `O=C(Cn1nc(-c2ccc(Cl)cc2Cl)c(-c2ccc(Cl)cc2Cl)n1)Nc1ccccc1` [Compound 147], 10 µM produced 99.5% inhibition at human CB1 receptor (setting [1]). Besides, the IC50 was 251 ± 88.1 nM at human CB1 receptor and > 10 µM on human CB2 receptor (cells printed in μM).
For `O=C(Cn1nc(-c2ccc(Cl)cc2)c(-c2ccc(Cl)cc2Cl)n1)NCc1cc(F)ccc1F` [Compound 165], in that order: 89.8%, 152 ± 71 nM and > 10 µM.
Consider `O=C(Cn1nc(-c2ccc(Cl)cc2Cl)c(-c2ccc(Cl)cc2Cl)n1)NCc1cc(F)ccc1F` [Compound 184], for which the IC50 at human CB1 receptor was 22 ± 6.1 nM; at human CB2 receptor (cells printed in μM), > 10 µM.
For `O=C(Cn1nc(-c2ccc(Cl)cc2Cl)c(-c2ccc(Cl)cc2Cl)n1)NCc1cccc(F)c1` [Compound 170] the same measures were 25.7 ± 2.9 nM and > 10 µM.
For the compound `O=C(Cn1nc(-c2ccc(Cl)cc2Cl)c(-c2ccc(Cl)cc2Cl)n1)NCc1ccc(F)c(F)c1` [Compound 198], the IC50 at human CB1 receptor is 82.9 ± 7 nM; on human CB2 receptor (cells printed in μM), > 10 µM.
On to `O=C(Cn1nc(-c2ccc(Cl)cc2Cl)c(-c2ccc(Cl)cc2Cl)n1)NCc1ccccc1Cl` [Compound 191], for which the half-maximal inhibitory concentration (IC50) is 48.9 ± 12 nM at human CB1 receptor and > 10 µM on human CB2 receptor (cells printed in μM).
As for `O=C(Cn1nc(-c2ccc(Cl)cc2Cl)c(-c2ccc(Cl)cc2Cl)n1)NC1CCCCC1` [Compound 125], on human CB1 receptor (Table 2, percent inhibition at 10 μM, 10 µM), the “CB1 Inhibition (%) (10 μM)” value is listed as 91.40%. The IC50 on human CB1 receptor was 144 ± 110 nM; at human CB2 receptor (cells printed in μM), > 10 µM.
On human CB1 receptor (setting [1]), `CCCCOC(=O)Cn1nc(-c2ccc(Cl)cc2Cl)c(-c2ccc(Cl)cc2Cl)n1` [Compound 111] displayed an inhibition at 10 µM of 90.3%. For the same compound, the IC50 at human CB1 receptor is 1170 ± 263 nM; on human CB2 receptor (cells printed in μM) it was > 10 µM.
For `O=C(Cn1nc(-c2ccc(Cl)cc2)c(-c2ccc(Cl)cc2Cl)n1)NCc1ccccc1F` [Compound 160], the inhibition at 10 µM at human CB1 receptor (setting [1]) was found to be 88.2%. Besides, the IC50 at human CB1 receptor is 262 ± 184 nM; at human CB2 receptor (cells printed in μM) it was > 10 µM.
`O=C(Cn1nc(-c2ccc(Cl)cc2Cl)c(-c2ccc(Cl)cc2Cl)n1)N1CCCCC1` [Compound 120] came in with an inhibition at 10 µM on human CB1 receptor (setting [1]) of 93.7%. The same compound showed an IC50 at human CB2 receptor (human CB2 stably expressed cell line membranes) of 5.9 ± 0.764 µM.
For `O=C(Cn1nc(-c2ccc(Cl)cc2Cl)c(-c2ccc(Cl)cc2Cl)n1)NCc1ccc(Cl)cc1` [Compound 192], the IC50 on human CB1 receptor was 64.8 ± 10.5 nM; on human CB2 receptor (cells printed in μM), > 10 µM.

The values above are taken from patent US8293773B2, “1, 2, 3-triazole derivatives as new cannabinoid-1 receptor antagonists” (National Tsing Hua University, priority 2008, dated 2012).
